Assays:
[1] = dog, in vivo
Description: The absorption of oral insulin was evaluated in beagles under somatostatin infusion at 1 μg/kg/min via an indwelling vein catheter.
Twelve beagle dogs with body weights between 8-12 kg were housed in an animal facility. The dogs were randomly divided into three groups and fasted overnight. Water was supplied ad libitum. Somatostatin infusion (1 μg/kg/min) was performed using a balloon infusion pump via an indwelling vein catheter, and tablets were fed with 10 ml water at 4 hr after initiation of somatostatin infusion. Food was restricted during the study, and blood samples were collected at various time points in heparinized tubes.
Blood glucose concentration was measured with a glucometer and matching testing strips (Johnson & Johnson, OneTouch®), and serum samples of 0.5-0.6 ml were recovered after blood samples were collected and centrifuged at 3000 rpm for 10 min. The samples were frozen at −20° C., and insulin concentration was measured by ELISA (Linco).

blood glucose = experiment: effect of oral insulin on blood glucose in somatostatin infused dogs (Example 9); format: in vivo, beagle dogs; settings: somatostatin infusion 1 μg/kg/min; FIG. 8B
Description: Water was supplied ad libitum.

[2] = colon suppository containing 25 mg sodium caprate; cited from earlier work
[3] = estimated; cited from earlier work

## insulin [Insulin injection]
[1]
  effect on serum insulin concentration: large increase in insulin concentration
Blood glucose
  effect on blood glucose: rapid and profound reduction of glucose levels

## CC1(C)S[C@@H]2[C@H](NC(=O)[C@H](N)c3ccccc3)C(=O)N2[C@H]1C(=O)O [ampicillin]
[2]
  increase of area under the serum concentration-time curve (AUC) compared to ampicillin alone: 2.3 fold
  increase of maximum serum concentration (Cmax) compared to ampicillin alone: 2.6 fold

## CCCCCCCCCC(=O)[O-].[Na+] [sodium caprate]
[3]
  concentration needed to achieve a permeation enhancing effect: 10 to 13 mM
